Key:
[1] = 7-Day Dog Study (oral toxicity); assay type: in vivo; conditions: oral capsule once daily for 7 days, beagle dogs
Experimental: To evaluate the toxicity profile of a compound of formula I when administered to Beagle dogs for 7 days, and to determine the plasma concentrations of a compound of formula I and metabolites gemcitabine HCl and deoxydifluorouridine after 1 or 7 doses, a 7-day dog study is conducted.
Male and female beagle dogs 6-48 months of age are dosed orally via capsule with a compound of formula I. A range of doses is selected in an effort to determine a maximum tolerated dose and dose limiting toxicity. A dose volume of 1 mL/kg is used and doses aree administered once daily.
Clinical signs, body weight, food consumption, body temperature, hematology (including coagulation), clinical chemistry, urinalysis, plasma concentrations of the compound of Example I and its metabolites gemcitabine HCl and deoxydifluorouridine, and pathology (including gross pathology, organ weights, and histopathology) were evaluated.

[2] = Liver S9 Hydrolysis Assay (mouse); assay type: in vitro ADME, CD-1 mouse; conditions: mouse liver S9, 10 uM, pH 8.0
Experimental: (§1) Liver S9 Hydrolysis Assay
(§2) Hydrolysis of a compound of formula I by liver enzymes is determined by liver hydrolysis assay. Liver homogenates are prepared from CD-1 mouse, beagle dog, cynomolgus monkey, and human livers. Liver tissues are cut into small pieces using scissors, then, homogenized in 50 mM acetate buffer using Polytron (PT-10-85) for 1 min. Post-mitochondrial (S9) fractions are prepared from each by ultracentrifugation at 9,000×g at 4° C. for 10 min. Mouse, dog and monkey liver S9 fractions are prepared from freshly collected tissues, while human liver S9 are prepared from previously frozen tissue. After centrifugation, the supernatant is collected and protein concentrations are determined by standard spectrophotometric techniques. The prepared S9 fractions are store at −70° C. before using.
(§3) The hydrolytic rates of a compound of formula I in liver S9 is determined by incubating compound (10 uM) with S9 (2 mg/mL of total protein) in phosphate buffered saline at pH 8.0 for up to 6 hours. Concentrations of gemcitabine released via hydrolysis are determined by LC/MS analysis after the reaction is quenched with acetonitrile. Hydrolysis rates are calculated at 30 minutes in screening experiments and from the slope of the linear portion of the hydrolysis vs. time curves in characterization studies of a compound of formula I.

[3] = Monkey Pharmacokinetics Assay; assay type: in vivo; conditions: administered intravenously to cynomolgus monkeys
Experimental: Monkey Pharmacokinetics Assay
The pharmacokinetic profiles of gemcitabine and a compound of formula I, are assessed in cynomolgus monkeys following oral and intravenous administration in a crossover design. Compounds are administered at doses selected to contain approximately 10 mg/kg of gemcitabine. Blood samples are collected into EDTA-treated tubes containing tetrahydrouridine (0.5 mM final concentration in blood) at designated intervals for up to 48 hours. Animals are pretreated with ranitidine (intravenous, 5 mg/kg) in the oral dosing periods. Plasma is isolated by centrifugation and frozen prior to analysis. Plasma concentrations of gemcitabine and a compound of formula I are determined by LC/MS/MS analysis. Pharmacokinetic parameters are determined using WinNonlin software (Pharsight Corp., Mountain View, Calif.).

[4] = Small Intestine Homogenate Assay (dog); assay type: in vitro ADME, beagle dogs; conditions: dog SIH, 100 uM, pH 7.5
Experimental: (§4) Small Intestine Homogenate Assay
(§5) To determine the stability of a compound of formula I to enzymatic hydrolysis in the intestine, crude homogenates of small intestinal epithelial cells are prepared from sections of the upper small intestine from CD-1 mice, beagle dogs, cynomolgus monkeys, and humans. Mouse and dog homogenates are prepared from freshly collected tissue, while monkey and human homogenates are prepared from previously frozen tissues. Cells are gently scraped from intestinal segments, pooled, and homogenized in 50 mM acetate buffer using Polytron (PT-10-85). Protein concentrations are determined by standard spectrophotometric techniques. The prepared homogenates are store at −70° C. before using.
(§6) The hydrolytic rates of a compound of formula I in small intestinal homogenates (SIH) is determined by incubating a compound of formula I (100 uM) with SIH (2.5-5 mg/mL of total protein) in acetate at pH 7.5 for up to 6 hours. Concentrations of gemcitabine released via hydrolysis is determined by LC/MS analysis after the reaction is quenched with acetonitrile. Hydrolysis rates are calculated at 30 minutes in screening experiments and from the slope of the linear portion of the hydrolysis vs. time curves in characterization studies of a compound of formula I.

[5] = pH Chemical Stability Assay; assay type: physicochemical; conditions: pH range 1 to 8, after four hours, 40° C., 100 mcg/mL
Experimental: pH Chemical Stability Assay
The pH chemical stability is assessed using a semi-automated HPLC technique. Samples of compound of formula I are prepared at 100 mcg/mL in five buffers representing the pH range throughout the gastrointestinal tract (pH1-pH8). Samples are loaded onto an HPLC autosampler incubated at 40° C. Samples are repeatedly injected on the HPLC at hourly intervals for up to 24 hours with an HPLC column that separates a compound of formula I from gemcitabine. The peak area of the compound of formula I is monitored by UV detection over time and are compared to initial peak areas to determine stability.

[6] = Liver S9 Hydrolysis Assay (dog); assay type: in vitro ADME, beagle dog; conditions: dog liver S9, 10 uM, pH 8.0
Experimental: as §1, §2, §3

Mouse Pharmacokinetics = assay type: in vivo, CD-1 mice
Experimental: The pharmacokinetic profiles of gemcitabine and a compound of formula I, are assessed in male CD-1 mice following oral administration at doses selected to contain approximately 10 mg/kg of gemcitabine. Designated animals (n=3/time point/compound) are sacrificed at 0.08, 0.25, 0.5, 1, 2, and 6 hours after dosing, and systemic blood samples are collected into EDTA-treated tubes containing tetrahydrouridine (0.5 mM final concentration in blood) to inhibit further metabolism of gemcitabine. An additional 3 animals are sacrificed at 0.08 hours for collection of hepatic portal blood. Plasma is isolated by centrifugation and frozen prior to analysis. Plasma concentrations of gemcitabine and prodrugs are determined by LC/MS/MS analysis. Pharmacokinetic parameters are calculated using WinNonlin software (Pharsight Corp., Mountain View, Calif.). Pharmacokinetic parameters of each prodrug are compared to those determined from administration of oral gemcitabine hydrochloride in a similar study design.

[7] = test system: HCT-116 colon tumor cells; experiment: In Vivo Assay, HCT-116 colon tumor xenograft; conditions: oral gavage, HCT-116 xenograft in female nude mice
Experimental: HCT-116 colon tumor cells are grown in vitro under standard tissue culture conditions, harvested, washed, and 5×10^6 cells (1:1 suspension in Matrigel, Collaborative Biomedical Products, Inc) are injected subcutaneously in the rear flank of female nude mice (Charles River, CD1 nu/nu, 24-27 g, irradiated with 450 Rads within 24 h of implantation). Tumors are allowed to grow to ˜100 mm^3 before initiation of therapy. Vehicle control, a compound of formula I or gemcitabine-HCl at various dose levels are administered to the mice by oral gavage (10 ml/kg volume) at the times indicated in the individual experiments. Compounds are administered either daily for fourteen days, every other day for a total of seven doses, or every third day for a total of four doses. […] Tumor size is determined by caliper measurements and tumor volume (mm^3) is estimated from the formula l×w^2×0.536, where l is the larger and w is the smaller of perpendicular diameters. All data (tumor measurements and animal weights) are captured twice-weekly beginning with the start of therapy and analyzed using a computer based tumor measurement system.

[8] = 14 Day Mouse Study (oral toxicity and exposure); assay type: in vivo; conditions: 14 days oral gavage, CD-1 mice
Experimental: A 14-Day Mouse Study is conducted to evaluate whether a compound of formula I produces adverse effects in mice following 14 days of oral gavage dosing and to determine the plasma concentrations of a compound of formula I and its metabolites gemcitabine HCl and deoxydifluorouridine after 1 or 14 doses.
Male and female CD-1 mice 9-12 weeks of age are dosed with a compound of formula I […] by oral gavage. A range of doses is selected in an effort to determine a maximum tolerated dose and dose limiting toxicity. A dose volume of 10 mL/kg is used and doses are administered once daily.
Clinical signs, body weight, food consumption, hematology, clinical chemistry, plasma concentrations of a compound of formula I and metabolites gemcitabine HCl and deoxydifluorouridine, and pathology (including gross pathology, organ weights, and histopathology) are evaluated.

[9] = Small Intestine Homogenate Assay (mouse); assay type: in vitro ADME, CD-1 mice; conditions: mouse SIH, 100 uM, pH 7.5
Experimental: as §4, §5, §6

[10] = Liver S9 Hydrolysis Assay (human); assay type: in vitro ADME
Experimental: as §1, §2, §3

[11] = Small Intestine Homogenate Assay (human); assay type: in vitro ADME, humans; conditions: human SIH
Experimental: as §4, §5, §6

[12] = Small Intestine Homogenate Assay (monkey); assay type: in vitro ADME, cynomolgus monkeys; conditions: monkey SIH
Experimental: as §4, §5, §6

[13] = Liver S9 Hydrolysis Assay (monkey); assay type: in vitro ADME, cynomolgus monkey
Experimental: as §1, §2, §3

[14] = 4-Day Mouse Screen (oral toxicity); assay type: in vivo; conditions: oral gavage once daily for 4 days, molar equivalent of 8-mg/kg gemcitabine, female CD-1 mice
Experimental: To evaluate the toxicity produced by orally administered compound of formula I when administered daily to female […] mice for 4 days, the gastrointestinal toxicity profiles of a compound of formula I is compared with the historical results for gastrointestinal toxicity when gemcitabine is administered orally at 8 mg/kg in a 4-day mouse study.
Female CD-1 mice 5-8 weeks of age are dosed with a compound of formula I by oral gavage. A dose level is chosen to approximate a molar equivalent of 8-mg/kg gemcitabine. A dose volume of 10 mL/kg is used and doses are administered once daily on 4 consecutive days. Necropsy is performed approximately 5-8 hours following the 4th dose.
Clinical signs, clinical chemistry, gross pathology, and limited histopathology (ileum, jejunum, and liver) are evaluated.

[15] = cited from earlier work
[16] = result of first pass metabolism; cited from earlier work

CCCC(CCC)C(=O)Nc1ccn([C@@H]2O[C@H](CO)[C@@H](O)C2(F)F)c(=O)n1 [Example 1, 1-(2,2-difluoro-2-deoxy-β-D-ribofuranosyl)-4-(2-propyl-1-oxopentyl)aminopyrimidin-2-one]
hematotoxicity and the other toxicities, including GI toxicity [1]: consistent with what has been previously described for parenteral gemcitabine
hydrolysis in liver S9 [2]: hydrolyzed
hydrolysis in vivo to release gemcitabine [3]: extensively hydrolyzed
rate of hydrolysis in small intestine homogenate [4]: slow rate of hydrolysis
compound degraded to gemcitabine [5]: Less than 25%
hydrolysis in liver S9 [6]: hydrolyzed
concentration of intact prodrug in hepatic portal plasma (Mouse Pharmacokinetics; 0.08 hours after oral dosing, CD-1 mice): relatively high concentrations
hydrolysis in vivo to release gemcitabine (Mouse Pharmacokinetics; administered orally to CD-1 mice, approx. 10 mg/kg of gemcitabine): extensively hydrolyzed
plasma exposure to gemcitabine compared to direct oral administration of gemcitabine hydrochloride (Mouse Pharmacokinetics; oral, CD-1 mice): increased
antitumor efficacy versus equivalent dose of gemcitabine-HCl [7]: comparable
overall toxicity versus equivalent amount of gemcitabine-HCl [7]: less overall toxicity
enteropathy versus gemcitabine HCl on a molar equivalent basis [8]: less enteropathy
systemic exposure to gemcitabine HCl versus gemcitabine HCl on a molar equivalent basis [8]: approximately twice
rate of hydrolysis in small intestine homogenate [9]: slow rate of hydrolysis
hydrolysis in liver S9 ([10]; human liver S9, 10 uM, pH 8.0): hydrolyzed
total compound converted to gemcitabine ([10]; human liver S9, 6 hour incubation): approximately 3.5%
rate of hydrolysis in small intestine homogenate ([11]; 100 uM, pH 7.5): slow rate of hydrolysis
total compound converted to gemcitabine ([11]; 6 hour incubation): less than 3%
rate of hydrolysis in small intestine homogenate ([12]; 100 uM, pH 7.5): slow rate of hydrolysis
total compound converted to gemcitabine ([12]; 6 hour incubation): less than 3%
hydrolysis in liver S9 ([13]; monkey liver S9, 10 uM, pH 8.0): hydrolyzed
total compound converted to gemcitabine ([13]; monkey liver S9, 6 hour incubation): approximately 3.5%
severity of atrophic intestinal changes or enteropathy versus gemcitabine HCl [14]: significant reduction

Nc1ccn([C@@H]2O[C@H](CO)[C@@H](O)C2(F)F)c(=O)n1 [gemcitabine, 2′,2′-difluoro-2′-deoxycytidine]
death or gastrointestinal toxicity ([15]; comparable exposures via intravenous dosing, previous mouse studies): did not result in death or gastrointestinal toxicity
intestinal lesions ([15]; single oral (gavage) dose of 167, 333, or 500 mg/kg, mice): moderate-to-marked loss of mucosal epithelium (atrophic enteropathy)
oral bioavailability [16]: poor oral bioavailability

Reference: patent US7691827B2, “Amide prodrug of gemcitabine, compositions and use thereof” (Eli Lilly and Company, priority 2004, dated 2010)
